What was measured:
α3 GlyR [1] = target: T1, α3 GlyR (Rattus norvegicus, UniProt P24524); test: whole-cell patch clamp, potentiation of glycine current; type: cell-based; details: HEK 293 cells, allosteric potentiator, sustained application
T1 sequence (P24524 34-464): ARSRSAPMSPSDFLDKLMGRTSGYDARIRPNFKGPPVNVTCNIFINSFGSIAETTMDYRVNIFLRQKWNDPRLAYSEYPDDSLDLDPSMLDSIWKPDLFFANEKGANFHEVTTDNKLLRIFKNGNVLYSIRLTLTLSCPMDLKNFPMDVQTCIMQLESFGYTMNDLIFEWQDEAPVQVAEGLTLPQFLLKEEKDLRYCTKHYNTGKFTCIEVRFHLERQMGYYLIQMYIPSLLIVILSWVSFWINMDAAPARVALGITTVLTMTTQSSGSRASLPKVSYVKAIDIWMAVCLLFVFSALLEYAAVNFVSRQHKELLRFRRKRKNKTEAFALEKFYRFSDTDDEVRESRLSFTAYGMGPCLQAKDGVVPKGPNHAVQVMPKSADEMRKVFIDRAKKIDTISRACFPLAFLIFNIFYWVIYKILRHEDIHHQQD

α3 GlyR [2] = target: T1, α3 GlyR; test: whole-cell patch clamp, glycine currents; type: cell-based

## C=C(C)[C@@H]1CCC(C)=C[C@H]1c1c(O)cc(CCCCC)cc1O [CBD, cannabidiol]
α3 GlyR [1]
  % potentiation at 1 μM: 491 ± 101%

## NCC(=O)O [glycine]
α3 GlyR [2]
  EC50: 377 ± 45 µM

Source: PMC3371734 (The Journal of Experimental Medicine, 2012)
